Assay results from article PMC6272027, “Trithiocyanurate Complexes of Iron, Manganese and Nickel and Their Anticholinesterase Activity” (Molecules, 2014).

Molecular target: cholinesterases (rat brain homogenate)
Test: In vitro anticholinesterase inhibition test (rat brain homogenate, acetylcholine iodide substrate, automatic titration)
Type: biochemical
Settings: anticholinesterase activity in vitro; for IC50: rat brain homogenate, substrate acetylcholine iodide; for HillSlope: nonlinear regression (GraphPad Prism)
Experimental: In vitro inhibition test was conducted as described earlier. Solutions of the prepared Fe(L1)](ttcH2)(ClO4)·EtOH·H2O (1), [Mn3(phen)6(ttc)](ClO4)3 (2), and Ni2(L2)(ttcH)(ClO4)2·6H2O·EtOH (3) complexes of appropriate concentrations (concentration range from 10^−7 to 10^−1 M; 500 µL) were added to the suspension of rat brain homogenate (10 w/v in distilled water; 500 µL), solution of sodium chloride (3 M; 2.5 mL) and water (20 mL). Subsequently, a solution of acetylcholine iodide (0.02 M; 2.0 mL) was added (=starting of the enzyme reaction). The enzyme activity was immediately determined using of automatic titrator RTS 822 (Radiometer, Bronshoj, Denmark). The IC50 values were calculated from a plot of percent inhibition of cholinesterases versus its concentration. […] Nonlinear regression was performed using software for statistical analysis GraphPad Prism version 4 for Windows (GraphPad Software, San Diego, CA, USA; www.graphpad.com).

Compound | IC50 [µM] | HillSlope
O=S(=O)([O-])[O-].[Fe+2] [FeSO4, reference compound] | > 1000 | –
O=S(=O)([O-])[O-].[Mn+2] [MnSO4, reference compound] | > 1000 | –
O=S(=O)([O-])[O-].[Ni+2] [NiSO4, reference compound] | 12900 | −0.3920
[Mn3(phen)6(ttc)](ClO4)3 [compound 2] | 33.4 | 0.2280
